The test system of this test is HCT116 EGFR protein level, western blot, 24 h. As to the kind of experiment: EGFR protein lowering in cells – cell-based, HCT116 colorectal carcinoma, chemiluminescent western blot, counter-screen for KLF5 inhibitor project, late-stage follow-up (AID 588648). The conditions noted are these: at 10 µM; for inhibition: stronger effect = higher value; for fold change: measured here: EGFR band fold change vs DMSO. Background: In western blotting, separated proteins are transferred to a membrane and probed.

Activity calls are given as the source filed them.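 Rule for the calls: active = Change of at least 30% in epidermal growth factor receptor protein level versus solvent-only controls, drop or rise; inactive = receptor level change under 30% either way.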

Usually inhibition stands for the relative decrease from the control value, in per cent.

In the case of `CN(C(=O)CNC(=O)/C=C/c1cccc(Cl)c1)C1CCS(=O)(=O)CC1`, the inhibition is 12.7% (inactive) and the fold change is -1.15.

For `CN(C(=O)COC(=O)/C=C/c1cccc([N+](=O)[O-])c1)C1CCS(=O)(=O)C1` (stereo unspecified), the inhibition is 1.68% (inactive) and the fold change was -1.02.

`CN(C(=O)CNC(=O)/C=C/c1cccc(Cl)c1)C1CCS(=O)(=O)C1` (stereo unspecified): the inhibition was 10.3% (inactive) and the fold change is -1.11.

(Values after PubChem BioAssay AID588648 (The Scripps Research Institute Molecular Screening Center, 2011).)
